Target: T1, ScPma1p (yeast plasma membrane ATPase 1) (Saccharomyces cerevisiae, UniProt P05030)
T1 construct: gene PMA1
Assay: cell-free vesicle-based ATP hydrolysis assay (ScPma1p-overexpressing vesicles, phosphate release)
Assay type: biochemical

T1 sequence (P05030 whole entry): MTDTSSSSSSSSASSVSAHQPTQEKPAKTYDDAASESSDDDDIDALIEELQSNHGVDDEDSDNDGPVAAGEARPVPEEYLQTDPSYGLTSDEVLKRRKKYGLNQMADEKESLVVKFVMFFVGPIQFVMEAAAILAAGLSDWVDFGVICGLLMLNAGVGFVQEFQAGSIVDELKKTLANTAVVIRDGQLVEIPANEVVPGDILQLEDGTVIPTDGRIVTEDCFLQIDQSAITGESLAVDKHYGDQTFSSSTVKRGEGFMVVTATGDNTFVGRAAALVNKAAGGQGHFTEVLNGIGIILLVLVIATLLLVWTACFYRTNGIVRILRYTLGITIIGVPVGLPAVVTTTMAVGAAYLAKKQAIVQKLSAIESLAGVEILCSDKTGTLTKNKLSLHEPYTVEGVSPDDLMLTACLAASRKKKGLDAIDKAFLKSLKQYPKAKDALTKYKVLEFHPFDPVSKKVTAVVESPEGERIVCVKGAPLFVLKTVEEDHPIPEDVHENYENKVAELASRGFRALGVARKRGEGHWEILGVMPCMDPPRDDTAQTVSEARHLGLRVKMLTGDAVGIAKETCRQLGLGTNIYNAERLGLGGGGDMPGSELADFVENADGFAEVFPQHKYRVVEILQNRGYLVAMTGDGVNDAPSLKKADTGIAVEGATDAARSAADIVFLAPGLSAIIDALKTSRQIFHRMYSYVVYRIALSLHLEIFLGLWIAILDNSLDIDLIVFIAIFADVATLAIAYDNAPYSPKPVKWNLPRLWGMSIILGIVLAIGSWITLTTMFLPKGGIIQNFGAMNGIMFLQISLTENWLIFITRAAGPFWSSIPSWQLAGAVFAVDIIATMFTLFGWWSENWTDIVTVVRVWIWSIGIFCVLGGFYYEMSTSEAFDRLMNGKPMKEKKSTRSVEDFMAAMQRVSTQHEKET

For `Cn1ncc2c(Nc3cccc(Cl)c3)nc(Nc3cccc(Cl)c3)nc21` [NSC11668, 4-N,6-N-bis(3-chlorophenyl)-1-methylpyrazolo[3,4-d]pyrimidine-4,6-diamine], the IC50 was 4.4 µM.
